Measurements: ChEMBL document CHEMBL4004872, “A robust synthesis of functionalized 2H-indazoles via solid state melt reaction (SSMR) and their anti-tubercular activity” (Bioorg Med Chem Lett, 2017)
In brackets after ≈: the same amount, converted by molar mass.

Legend:
[1] = test system: Mycobacterium tuberculosis; test: Antitubercular activity against Mycobacterium tuberculosis H37Rv after 7 days by Alamar blue assay; type: functional; conditions: 168 h
[2] = Cytotoxicity against mouse RAW264.7 cells assessed as growth inhibition at 50 ug/ml after 48 hrs by MTT assay relative to control; type: cell-based; conditions: read-out: GI

Row | SMILES | MIC99 [1] [µM] | inhibition at 48 h, 50 ug/ml [2] [%]
1 | O=C(Nc1ccccn1)c1ccccc1-n1cc2ccccc2n1 | 19.9 (≈ 6.26 µg/mL) | 31.8
2 | O=C(NCc1ccc(Cl)cc1)c1ccccc1-n1cc2ccccc2n1 | 8.66 (≈ 3.13 µg/mL) | 28.1
3 | Cc1ccc(NC(=O)c2ccccc2-n2cc3ccccc3n2)c(C)c1 | 18.3 (≈ 6.25 µg/mL) | 36.7
4 | O=C(NCc1ccccc1)c1ccccc1-n1cc2ccccc2n1 | 19.1 (≈ 6.26 µg/mL) | 31.6
5 | O=C(NCc1ccc(F)cc1)c1ccccc1-n1cc2ccccc2n1 | 36.3 (≈ 12.6 µg/mL) | 
6 | CCCCNC(=O)c1ccccc1-n1cc2ccccc2n1 | 85.3 (≈ 25 µg/mL) | 
7 | CC(C)(C)NC(=O)c1ccccc1-n1cc2ccccc2n1 | 42.7 (≈ 12.5 µg/mL) | 
8 | COc1ccc(NC(=O)c2ccccc2-n2cc3ccccc3n2)cc1 | 36.4 (≈ 12.5 µg/mL) | 
9 | O=C(NCc1ccccc1)c1ccccc1-n1cc2ccc(Cl)cc2n1 | 17.3 (≈ 6.26 µg/mL) | 30.6
10 | O=C(NC1CCCCC1)c1ccccc1-n1cc2ccccc2n1 | 78.4 (≈ 25 µg/mL) | 
11 | COc1ccc(CNC(=O)c2ccccc2-n2cc3ccccc3n2)cc1 | 35 (≈ 12.5 µg/mL) | 
12 | O=C(Nc1ccc(F)cc1)c1ccccc1-n1cc2ccccc2n1 | 37.8 (≈ 12.5 µg/mL) | 
13 | O=C(NCc1ccccc1)c1ccccc1-n1cc2cc3c(cc2n1)OCO3 | 4.2 (≈ 1.56 µg/mL) | 22.9
14 | O=C(NCCc1c[nH]c2ccccc12)c1ccccc1-n1cc2ccccc2n1 | 16.4 (≈ 6.25 µg/mL) | 18.8
15 | Cc1ccnc(NC(=O)c2ccccc2-n2cc3ccccc3n2)c1 | 38.1 (≈ 12.5 µg/mL) | 
16 | COc1cc(NC(=O)c2ccccc2-n2cc3ccccc3n2)cc(OC)c1OC | 7.75 (≈ 3.13 µg/mL) | 32.1
17 | O=C(Nc1ccccc1)c1ccccc1-n1cc2ccccc2n1 | 15.8 (≈ 4.96 µg/mL) | 39.6
18 | O=C(NCc1ccccc1)c1ccccc1-n1cc2ccc(Br)cc2n1 | 56.4 (≈ 22.9 µg/mL) | 
19 | O=C(NCc1ccccc1)c1ccccc1-n1cc2cc(Br)ccc2n1 | 7.72 (≈ 3.14 µg/mL) | 40.5
20 | O=C(NCc1ccccc1Cl)c1ccccc1-n1cc2ccccc2n1 | 10.6 (≈ 3.83 µg/mL) | 23.7
21 | Cc1ccc(CNC(=O)c2ccccc2-n2cc3ccccc3n2)cc1 | 9.16 (≈ 3.13 µg/mL) | 34.5
22 | O=C(Nc1ccccc1O)c1ccccc1-n1cc2ccccc2n1 | 38 (≈ 12.5 µg/mL) | 
23 | CC[C@@H](CO)NCCN[C@@H](CC)CO [ETHAMBUTOL] | 7.6 (≈ 1.55 µg/mL) | 
24 | NNC(=O)c1ccncc1 [ISONIAZID] | 0.4 (≈ 0.0549 µg/mL) | 
25 | CO[C@H]1/C=C/O[C@@]2(C)Oc3c(C)c(O)c4c(O)c(c(/C=N/N5CCN(C)CC5)c(O)c4c3C2=O)NC(=O)/C(C)=C\C=C\[C@H](C)[C@H](O)[C@@H](C)[C@@H](O)[C@@H](C)[C@H](OC(C)=O)[C@@H]1C [RIFAMPIN] | 0.5 (≈ 0.411 µg/mL) | 
